The source of these data is ChEMBL document CHEMBL6127124, “Structure-Activity Relationships and Discovery of (S)-5-(tert-Butyl)-11-(difluoromethoxy)-9-methoxy-2-oxo-1,2,5,6-tetrahydropyrido[2',1':2,3]imidazo[4,5-h]quinoline-3-carboxylic Acid (AB-161), a Novel Orally Available and Liver-Centric HBV RNA Destabilizer” (J Med Chem, 2024).

One data set concerns Hepatitis B virus. The experiment in a line: Antiviral activity against HBV infected in human HepG2.2.15 cells assessed as reduction in HBsAg level incubated for 6 days with media and compound replenishment on third day by CLIA. Format: functional, organism-based. Conditions: HepG2.2.15, 144 h; for EC90: time 6 day.
Data set [1] in a line: Cytotoxicity in human HepG2.2.15 cells by Cell Titer-Glo assay. It counts as toxicity, cell-based, HepG2 2.2.15.
A short description of data set [2]: Selectivity ratio of drug concentration in liver in CD-1 mouse at 10 mg/kg, po measured for 24 hrs to EC90 for antiviral activity against HBV infected in human HepG2.2.15 cells assessed as reduction in HBsAg level. Format: ADME, organism-based. Conditions: in vivo.
A short description of data set [3]: Metabolic stability in human liver microsomes assessed as clearance at 0.3 uM preincubated for 5 mins followed by NADPH addition measured upto 60 mins by LC-MS/MS analysis. It counts as ADME, Microsome. Conditions: time < 65 min, read-out: CLH.
A short description of data set [4]: Ratio of total drug concentration in liver to plasma in CD-1 mouse at 10 mg/kg, po measured for 24 hrs by LC-MS/MS analysis. Conditions: for Kp at 24 h: CD-1, mouse, liver and plasma. Format: ADME, organism-based.
Data set [5] can be described thus: Metabolic stability in Sprague-Dawley rat liver microsomes assessed as clearance at 0.3 uM preincubated for 5 mins followed by NADPH addition measured upto 60 mins by LC-MS/MS analysis. It counts as ADME, Microsome. Conditions: time < 65 min, read-out: CLH. For orientation: Microsomes from liver hold many membrane-bound enzymes, among them those of drug oxidation.

A short description of data set [6]: AUC (0 to 24 hrs) in CD-1 mouse at 10 mg/kg, po measured for 24 hrs by LC-MS/MS analysis. Conditions: in vivo. Format: ADME, organism-based.
The nature of data set [7]: Selectivity ratio of drug concentration in liver in CD-1 mouse at 10 mg/kg, po measured for 12 hrs to EC90 for antiviral activity against HBV infected in human HepG2.2.15 cells assessed as reduction in HBsAg level. It counts as ADME, organism-based. Conditions: in vivo.
Data set [8] can be described thus: Metabolic stability in CD-1 mouse liver microsomes assessed as clearance at 0.3 uM preincubated for 5 mins followed by NADPH addition measured upto 60 mins by LC-MS/MS analysis. Conditions: time < 65 min, read-out: CLH. Format: ADME, Microsome.
Data set [9] can be described thus: Ratio of total drug concentration in liver to plasma in CD-1 mouse at 10 mg/kg, po measured for 12 hrs by LC-MS/MS analysis. It counts as ADME, organism-based. Conditions: liver and plasma.

The structures appear in SMILES notation. pEC50: −log10 of the molar value.

As usually defined, the pEC50 is −log10 of the EC50, conventionally taken in molar units. By EC90 is commonly meant the concentration at which the effect reaches the 90% level. In general, CC50 refers to the concentration at which the toxic effect on the cells reaches its halfway point. Low values mean greater toxicity to the cells, high ones lower toxicity to the cells. Usually Kp stands for tissue or fluid exposure divided by exposure in the circulation. What is called AUC(0-t) is the area under the concentration-time curve up to a stated or last time point.

Regarding `CC(C)(C)C1Cc2c(nc3c(C(F)(F)F)cc(F)cn23)-c2[nH]c(=O)c(C(=O)O)cc21` (stereo not drawn), in the data set on Hepatitis B virus, the pEC50 was 8.31 and the EC90 was 10 nM. Besides, the half-maximal cytotoxic concentration (CC50) in data set [1] was over 50000 nM.

In the case of `CC(C)(C)[C@@H]1Cc2c(nc3c(C(F)(F)F)cccn23)-c2[nH]c(=O)c(C(=O)O)cc21`, the Ratio was determined as 3 in [2] and 438 in data set [7]. The microsomal CLint at 0.3 µM in [3] came out at 2 µL/min/mg; in data set [5] it was 8 µL/min/mg; in [8] it was 15 µL/min/mg. Besides, the pEC50 in the data set with Hepatitis B virus is 8.51. Further, the EC90 with Hepatitis B virus came to 46 nM. The CC50 in data set [1] is over 50000 nM. For the same molecule, in data set [4], the Kp at 24 h was determined as 92. This molecule also displayed an AUC(0-t) at 24 h in [6] of 2150 ng·h/mL. Besides, the Kp at 12 h in data set [9] amounted to 72.

Regarding `CC(C)(C)[C@@H]1Cc2c(nc3c(OC(F)F)cccn23)-c2[nH]c(=O)c(C(=O)O)cc21`, the Ratio is 1 in data set [2]; “Bld” in [4] (mouse, in vivo, po, 10 mg/kg, 24 h, BLD = below limit of detection); 108 in [7]. In addition, the microsomal CLint at 0.3 µM in data set [3] is 2 µL/min/mg; in data set [5], 33 µL/min/mg; in data set [8] it was 45 µL/min/mg. In addition, the pEC50 in the data set on Hepatitis B virus is 8.43. In addition, in the data set with Hepatitis B virus, the EC90 is 34 nM. Also, in data set [1], the CC50 was over 50000 nM. The AUC(0-t) at 24 h in data set [6] turned out to be 853 ng·h/mL. Also, in data set [9], the Kp at 12 h turned out to be 133.

In the case of `CC(C)(C)C1Cc2c(nc3c(C(F)(F)F)cc(Cl)cn23)-c2c1cc(C(=O)O)c(=O)n2C1CC1` (stereo not drawn), in the data set on Hepatitis B virus, the pEC50 was 8.64 and the EC90 was determined as 7 nM. The molecule also gave a CC50 in data set [1] of 16000 nM.

For the molecule `CC(C)(C)[C@@H]1Cc2c(nc3c(C(F)(F)F)cc(Cl)cn23)-c2[nH]c(=O)c(C(=O)O)cc21`, the microsomal CLint at 0.3 µM in data set [3] was 3 µL/min/mg. Besides, in the data set on Hepatitis B virus, the pEC50 is 8.70 and the EC90 was 34 nM. The same molecule showed a half-maximal cytotoxic concentration (CC50) in data set [1] of over 50000 nM. In addition, in data set [8], the microsomal CLint at 0.3 µM is 3 µL/min/mg.

Regarding `COc1cccn2c3c(nc12)-c1[nH]c(=O)c(C(=O)O)cc1[C@H](C(C)(C)C)C3`, the microsomal CLint at 0.3 µM in data set [3] is 1 µL/min/mg; in data set [8], 16 µL/min/mg. Further, the pEC50 in the data set with Hepatitis B virus is 7.92. For the same molecule, the EC90 in the data set with Hepatitis B virus was determined as 121 nM. In addition, in data set [1], the CC50 is over 50000 nM. In [7], the Ratio is recorded as 3. The partition ratio (Kp) at 12 h in data set [9] was determined as 11.

On to `CC(C)(C)[C@@H]1Cc2c(nc3c(C(F)F)cccn23)-c2[nH]c(=O)c(C(=O)O)cc21`, for which the microsomal CLint at 0.3 µM in [3] was found to be 2 µL/min/mg. For the same molecule, in the data set on Hepatitis B virus, the pEC50 is 7.92 and the EC90 was determined as 135 nM. The molecule further had a CC50 in data set [1] of over 50000 nM. For the same molecule, in data set [8], the microsomal CLint at 0.3 µM is 11 µL/min/mg.

`CC(C)(C)[C@@H]1Cc2c(nc3c(OC(F)F)cc(OC(F)F)cn23)-c2[nH]c(=O)c(C(=O)O)cc21`: in the data set with Hepatitis B virus, the pEC50 was 8.10 and the EC90 turned out to be 7 nM. Besides, the CC50 in data set [1] was over 50000 nM.

On to `Cc1cc(C(F)(F)F)c2nc3c(n2c1)CC(C(C)(C)C)c1cc(C(=O)O)c(=O)[nH]c1-3` (stereo not drawn), for which, in the data set on Hepatitis B virus, the pEC50 was 9.10 and the EC90 stood at 11 nM. In [1], the CC50 is 47000 nM.

Take `COc1ccn2c3c(nc2c1OC)-c1[nH]c(=O)c(C(=O)O)cc1[C@H](C(C)(C)C)C3`: the Ratio in [2] is listed as 0.3. Moreover, in the data set on Hepatitis B virus, the negative-log EC50 (pEC50) was 8.25 and the EC90 amounted to 51 nM. In data set [1], this molecule yielded a half-maximal cytotoxic concentration (CC50) of over 50000 nM. For the same molecule, the Kp at 24 h in data set [4] was 5. Also, in data set [6], the AUC(0-t) at 24 h came out at 5100 ng·h/mL. For the same molecule, the microsomal CLint at 0.3 µM in [8] was found to be 1 µL/min/mg.
